From PubChem BioAssay AID2060609 (Molecular Pharmacology Branch, DTP, NCI, 2025)
Where “and” joins values, the source holds several entries; their conditions need not be identical. Equal values may be shown once.

Tested on: 855422-203-R-J1-PDC complex spheroids, viability
Assay: Anticancer human tumor 855422-203-R-J1-PDC patient-derived bladder carcinoma cell line growth inhibition [CLK]
Details: for viability, T/C: stronger effect = lower value
In short: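 Patient-derived tumor cells grown as complex spheroids with HUVEC endothelial cells and mesenchymal stem cells, treated with drug combinations. Concentrations descend in half-log steps from near clinical Cmax, or from 10 microM if Cmax unknown.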

[1] = curve of first compound, second compound 0.0316 µM
[2] = curve of first compound, second compound 0.1 µM
[3] = curve of first compound, second compound 0.316 µM
[4] = curve of first compound, second compound 1 µM
[5] = curve of first compound, second compound 3.16 µM
[6] = curve of first compound, second compound 10 µM
[7] = second compound 0.0316 µM, first compound 0.0316 µM
[8] = second compound 0.0316 µM, first compound 0.1 µM
[9] = second compound 0.0316 µM, first compound 0.316 µM
[10] = second compound 0.0316 µM, first compound 1 µM
[11] = second compound 0.0316 µM, first compound 3.16 µM
[12] = second compound 0.0316 µM, first compound 10 µM
[13] = second compound 0.1 µM, first compound 0.0316 µM
[14] = second compound 0.1 µM, first compound 0.1 µM
[15] = second compound 0.1 µM, first compound 0.316 µM
[16] = second compound 0.1 µM, first compound 1 µM
[17] = second compound 0.1 µM, first compound 3.16 µM
[18] = second compound 0.1 µM, first compound 10 µM
[19] = second compound 0.316 µM, first compound 0.0316 µM
[20] = second compound 0.316 µM, first compound 0.1 µM
[21] = second compound 0.316 µM, first compound 0.316 µM
[22] = second compound 0.316 µM, first compound 1 µM
[23] = second compound 0.316 µM, first compound 3.16 µM
[24] = second compound 0.316 µM, first compound 10 µM
[25] = second compound 1 µM, first compound 0.0316 µM
[26] = second compound 1 µM, first compound 0.1 µM
[27] = second compound 1 µM, first compound 0.316 µM
[28] = second compound 1 µM, first compound 1 µM
[29] = second compound 1 µM, first compound 3.16 µM
[30] = second compound 1 µM, first compound 10 µM
[31] = second compound 3.16 µM, first compound 0.0316 µM
[32] = second compound 3.16 µM, first compound 0.1 µM
[33] = second compound 3.16 µM, first compound 0.316 µM
[34] = second compound 3.16 µM, first compound 1 µM
[35] = second compound 3.16 µM, first compound 3.16 µM
[36] = second compound 3.16 µM, first compound 10 µM
[37] = second compound 10 µM, first compound 0.0316 µM
[38] = second compound 10 µM, first compound 0.1 µM
[39] = second compound 10 µM, first compound 0.316 µM
[40] = second compound 10 µM, first compound 1 µM
[41] = second compound 10 µM, first compound 3.16 µM
[42] = second compound 10 µM, first compound 10 µM
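Further: spheroids exposed to drugs for seven days before readout.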
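Wherever viability, T/C is given: 100% = DMSO vehicle control wells.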

C=CC(=O)N1CCN(c2nc(=O)n(-c3c(C)ccnc3C(C)C)c3nc(-c4c(O)cccc4F)c(F)cc23)C(C)C1 (stereo not given)
viability, T/C (compound 0.0316 µM): 91.5% and 117%
viability, T/C (compound 0.1 µM): 95.7% and 105%
viability, T/C (compound 0.316 µM): 121% and 122%
viability, T/C (compound 1 µM): 131% and 149%
viability, T/C (compound 3.16 µM): 174% and 201%
viability, T/C (compound 10 µM): 161% and 180%
IC50 (curve of compound): > 10000 nM

CC1COCCN1c1cc(C2(S(C)(=N)=O)CC2)nc(-c2ccnc3[nH]ccc23)n1 (stereo not given) + CNC(=O)c1ccc(Nc2nc(OC3CCCC3)c3c(-c4ccc5nc(C)oc5c4)c[nH]c3n2)c(OC)c1
IC50 [1]: 2340 nM
IC50 [2]: 1070 nM
IC50 [3]: < 31.6 nM
IC50 [4]: < 31.6 nM
IC50 [5]: < 31.6 nM
IC50 [6]: < 31.6 nM
viability, T/C [7]: 101%
viability, T/C [8]: 95.5%
viability, T/C [9]: 103%
viability, T/C [10]: 111%
viability, T/C [11]: 31.3%
viability, T/C [12]: 11.1%
viability, T/C [13]: 61.3%
viability, T/C [14]: 65%
viability, T/C [15]: 57.3%
viability, T/C [16]: 52.4%
viability, T/C [17]: 18.6%
viability, T/C [18]: 11.6%
viability, T/C [19]: 23.3%
viability, T/C [20]: 22%
viability, T/C [21]: 23.2%
viability, T/C [22]: 15.2%
viability, T/C [23]: 11.8%
viability, T/C [24]: 9.36%
viability, T/C [25]: 22.3%
viability, T/C [26]: 20.9%
viability, T/C [27]: 24.7%
viability, T/C [28]: 17.8%
viability, T/C [29]: 12.2%
viability, T/C [30]: 6.79%
viability, T/C [31]: 22.9%
viability, T/C [32]: 20.1%
viability, T/C [33]: 18.5%
viability, T/C [34]: 20%
viability, T/C [35]: 10.8%
viability, T/C [36]: 6.49%
viability, T/C [37]: 18.1%
viability, T/C [38]: 18.4%
viability, T/C [39]: 21%
viability, T/C [40]: 20.2%
viability, T/C [41]: 13.6%
viability, T/C [42]: 7.4%

COc1ccc([C@@H](O)c2cc(-c3ncnc4cc(N5CCOCC5)ccc34)c(F)cc2Cl)nn1
viability, T/C (compound 0.0316 µM): 95.2% and 115%
viability, T/C (compound 0.1 µM): 98.5% and 95.4%
viability, T/C (compound 0.316 µM): 105% and 107%
viability, T/C (compound 1 µM): 103% and 85.6%
viability, T/C (compound 3.16 µM): 64.8% and 64.9%
viability, T/C (compound 10 µM): 35.1% and 26.4%
IC50 (curve of compound): 5610 nM and 4900 nM

CC1(C)CCC(CN2CCN(c3ccc(C(=O)NS(=O)(=O)c4ccc(NCC5CCOCC5)c([N+](=O)[O-])c4)c(Oc4cnc5[nH]ccc5c4)c3)CC2)=C(c2ccc(Cl)cc2)C1
viability, T/C (compound 0.0316 µM): 107% and 106%
viability, T/C (compound 0.1 µM): 90.2% and 119%
viability, T/C (compound 0.316 µM): 117% and 124%
viability, T/C (compound 1 µM): 103% and 118%
viability, T/C (compound 3.16 µM): 159% and 150%
viability, T/C (compound 10 µM): 1.83% and 3.19%
IC50 (curve of compound): 6140 nM and 6390 nM

CC(=O)O[C@H]1C(=O)[C@@]2(C)[C@H]([C@H](OC(=O)c3ccccc3)[C@]3(O)C[C@H](OC(=O)[C@H](O)[C@@H](NC(=O)c4ccccc4)c4ccccc4)C(C)=C1C3(C)C)[C@]1(OC(C)=O)CO[C@@H]1C[C@@H]2O + CN1CCN(c2cc(C(=O)Nc3cc4cc(-c5cnn(C)c5)ccc4cn3)ccn2)CC1
IC50 [1]: < 31.6 nM
IC50 [2]: < 31.6 nM
IC50 [3]: < 31.6 nM
IC50 [4]: < 31.6 nM
IC50 [5]: < 31.6 nM
IC50 [6]: < 31.6 nM
viability, T/C [7]: 8.75%
viability, T/C [8]: 7.02%
viability, T/C [9]: 5.26%
viability, T/C [10]: 9.34%
viability, T/C [11]: 9.46%
viability, T/C [12]: 10.8%
viability, T/C [13]: 8.5%
viability, T/C [14]: 7.8%
viability, T/C [15]: 6.23%
viability, T/C [16]: 6.41%
viability, T/C [17]: 8.14%
viability, T/C [18]: 8.37%
viability, T/C [19]: 4.94%
viability, T/C [20]: 5.41%
viability, T/C [21]: 5.22%
viability, T/C [22]: 4.69%
viability, T/C [23]: 4.5%
viability, T/C [24]: 5.61%
viability, T/C [25]: 0.21%
viability, T/C [26]: 0.19%
viability, T/C [27]: 0.18%
viability, T/C [28]: 1.39%
viability, T/C [29]: 1.11%
viability, T/C [30]: 0.14%
viability, T/C [31]: 0.45%
viability, T/C [32]: 0.41%
viability, T/C [33]: 0.38%
viability, T/C [34]: 0.39%
viability, T/C [35]: 0.32%
viability, T/C [36]: 0.37%
viability, T/C [37]: 1.12%
viability, T/C [38]: 0.73%
viability, T/C [39]: 0.33%
viability, T/C [40]: 1.28%
viability, T/C [41]: 0.43%
viability, T/C [42]: 2.45%

CC(C)CC(NC(=O)C(Cc1ccccc1)NC(=O)c1cnccn1)B(O)O (stereo not given)
viability, T/C (compound 0.000949 µM): 2.8% and 2.47%
viability, T/C (compound 0.003 µM): 0.77% and 0.18%
viability, T/C (compound 0.00949 µM): 0.19% and 0.16%
viability, T/C (compound 0.03 µM): 0.36% and 0.17%
viability, T/C (compound 0.0949 µM): 0.46% and 0.15%
viability, T/C (compound 0.3 µM): 0.24% and 0.15%
IC50 (curve of compound): < 0.949 nM

CC(Nc1ccc2c(c1)OCCn1cc(N3C(=O)OCC3C(F)F)nc1-2)C(N)=O (stereo not given) + CN1CCN(c2cc(C(=O)Nc3cc4cc(-c5cnn(C)c5)ccc4cn3)ccn2)CC1
IC50 [1]: 280 nM
IC50 [2]: 242 nM
IC50 [3]: < 31.6 nM
IC50 [4]: < 31.6 nM
IC50 [5]: < 31.6 nM
IC50 [6]: < 31.6 nM
viability, T/C [7]: 88.2%
viability, T/C [8]: 66.4%
viability, T/C [9]: 46.1%
viability, T/C [10]: 35.4%
viability, T/C [11]: 26.4%
viability, T/C [12]: 15.5%
viability, T/C [13]: 72.1%
viability, T/C [14]: 69.4%
viability, T/C [15]: 40.8%
viability, T/C [16]: 30.4%
viability, T/C [17]: 20.1%
viability, T/C [18]: 13.7%
viability, T/C [19]: 7.06%
viability, T/C [20]: 6.03%
viability, T/C [21]: 4.86%
viability, T/C [22]: 2.74%
viability, T/C [23]: 2.03%
viability, T/C [24]: 0.75%
viability, T/C [25]: 0.18%
viability, T/C [26]: 0.12%
viability, T/C [27]: 0.13%
viability, T/C [28]: 0.11%
viability, T/C [29]: 0.07%
viability, T/C [30]: 0.06%
viability, T/C [31]: 0.43%
viability, T/C [32]: 0.67%
viability, T/C [33]: 0.28%
viability, T/C [34]: 0.23%
viability, T/C [35]: 0.24%
viability, T/C [36]: 0.18%
viability, T/C [37]: 0.28%
viability, T/C [38]: 0.21%
viability, T/C [39]: 0.23%
viability, T/C [40]: 0.3%
viability, T/C [41]: 0.29%
viability, T/C [42]: 0.26%

COc1c(OCCCN2CCOCC2)ccc2c3n(c(=NC(=O)c4cnc(N)nc4)nc12)CCN3
viability, T/C (compound 0.00316 µM): 86% and 84.6%
viability, T/C (compound 0.01 µM): 55.7% and 52.6%
viability, T/C (compound 0.0316 µM): 35.4% and 31.9%
viability, T/C (compound 0.1 µM): 12.5% and 11%
viability, T/C (compound 0.316 µM): 4.09% and 3.82%
viability, T/C (compound 1 µM): 2.57% and 1.98%
IC50 (curve of compound): 14.1 nM and 12.1 nM

C#Cc1c(F)ccc2cc(O)cc(-c3ncc4c(N5CC6CCC(C5)N6)nc(OCC56CCCN5CC(F)C6)nc4c3F)c12 (stereo not given) + CN1CCN(c2cc(C(=O)Nc3cc4cc(-c5cnn(C)c5)ccc4cn3)ccn2)CC1
IC50 [1]: > 10000 nM
IC50 [2]: > 10000 nM
IC50 [3]: < 31.6 nM
IC50 [4]: < 31.6 nM
IC50 [5]: < 31.6 nM
IC50 [6]: < 31.6 nM
viability, T/C [7]: 106%
viability, T/C [8]: 98.8%
viability, T/C [9]: 119%
viability, T/C [10]: 98.8%
viability, T/C [11]: 104%
viability, T/C [12]: 113%
viability, T/C [13]: 84.4%
viability, T/C [14]: 84.4%
viability, T/C [15]: 85.1%
viability, T/C [16]: 89.2%
viability, T/C [17]: 93.3%
viability, T/C [18]: 81.9%
viability, T/C [19]: 13%
viability, T/C [20]: 12.4%
viability, T/C [21]: 14.8%
viability, T/C [22]: 15.1%
viability, T/C [23]: 14.9%
viability, T/C [24]: 8.68%
viability, T/C [25]: 0.86%
viability, T/C [26]: 0.58%
viability, T/C [27]: 0.22%
viability, T/C [28]: 0.24%
viability, T/C [29]: 0.22%
viability, T/C [30]: 0.17%
viability, T/C [31]: 0.39%
viability, T/C [32]: 0.72%
viability, T/C [33]: 0.49%
viability, T/C [34]: 0.38%
viability, T/C [35]: 1.64%
viability, T/C [36]: 0.18%
viability, T/C [37]: 0.42%
viability, T/C [38]: 0.85%
viability, T/C [39]: 0.3%
viability, T/C [40]: 0.35%
viability, T/C [41]: 0.3%
viability, T/C [42]: 0.2%

CCc1c2c(nc3ccc(O)cc13)-c1cc3c(c(=O)n1C2)COC(=O)[C@]3(O)CC
viability, T/C (compound 0.00316 µM): 94.3% and 93.4%
viability, T/C (compound 0.01 µM): 16.8% and 20.4%
viability, T/C (compound 0.0316 µM): 15.4% and 10.1%
viability, T/C (compound 0.1 µM): 5.45% and 6.24%
viability, T/C (compound 0.316 µM): 3.48% and 3.36%
viability, T/C (compound 1 µM): 1.87% and 2.42%
IC50 (curve of compound): 6.21 nM and 6.32 nM
